Like-named read-outs stand apart in the source and are kept apart here.
How the values were obtained:
Format in all cases: cell-based, human
Target C = assay: HiBiT protein abundance assay, Target C (Promega Nano-Glo HiBiT Lytic Detection System, knock-in K562 cell line); conditions: Homo sapiens, K562, 24 h, HiBiT K562 cell line, 24 hours, top dose 10 μM; read-out: Effect on protein abundance, Target C (IC50 category)
Summary of the method: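 Knock-in K562 cells carrying HiBiT-tagged Target C, 10,000 per well, treated 24 h at 37 °C with 10-point threefold dilutions (top 10 μM final, ≤0.25% DMSO). Lytic HiBiT luminescence read; response normalised to unmodified K562 and DMSO controls, four-parameter fit interpolated at 50% for IC50.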

HTT = assay: HiBiT protein abundance assay, HTT HiBiT K562 cell line; conditions: HiBiT K562 cell line, 24 hours, top dose 10 μM; read-out: Effect on protein abundance, HTT (IC50 category)
Summary of the method: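 K562 knock-in lines with endogenous HiBiT-tagged target, 10,000 cells/well in IMDM + FBS, treated 24 h at 37° C with 10-point 3-fold dilutions (top 10 μM final; DMSO ≤0.25%). Lytic Nano-Glo HiBiT luminescence normalized to untagged K562 baseline and DMSO controls; IC50 = concentration giving 50% abundance via four-parameter fit.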

MYB mRNA = assay: RT-qPCR splicing assay, MYB canonical junction (CJ) and alternative junction (AJ) mRNA; conditions: Homo sapiens; for AC50: increase in MYB alternative junction (AJ) mRNA, read-out: MYB AJ AC50
Summary of the method: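 24 h treatment, 37 °C/5% CO2; A673 or K562; 11-pt 3-fold series, top 10 uM final; DMSO ≤0.25%. Cell lysis with DNase I, then 1-step RT-qPCR. Housekeeping normalization: PPIA (A673), GAPDH or GUSB (K562).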

[1] = Table 5 panel, canonical junction qPCR, compound concentration having 50% response in CJ decrease, read-out: MYB IC50 (decrease in CJ mRNA levels)
[2] = decrease in MYB canonical junction (CJ) mRNA, RT-qPCR, read-out: MYB CJ IC50

SMILES | IC50 (Target C) [nM] | IC50 (HTT) [nM] | IC50 (MYB mRNA; [1]) [nM] | IC50 (MYB mRNA; [2]) [nM] | AC50 (MYB mRNA; RT-qPCR) [nM]
Cc1cn2cc(-c3cc(O)c4c(=O)n(C5CCNC6(CC6)C5)ncc4c3)cc(Cl)c2n1 (centres unmarked) [Compound 557] | 100 to 1000 | < 100 | 100 to 1000 | 100 to 1000 | 100 to 1000
CCc1cn(C2CCNCC2)c(=O)c2c(F)cc(-c3cc(F)c4nc(C)cn4c3)cc12 [Compound 558, 4-ethyl-8-fluoro-6-{8-fluoro-2-methylimidazo[1,2-a]pyridin-6-yl}-2-(piperidin-4-yl)isoquinolin-1-one] | 1000 to 10000 | 100 to 1000 | 100 to 1000 | 100 to 1000 | 100 to 1000
C=Cc1cn(C2CCNCC2)c(=O)c2c(F)cc(-c3cc(F)c4nc(C)cn4c3)cc12 [Compound 559, 4-ethenyl-8-fluoro-6-{8-fluoro-2-methylimidazo[1,2-a]pyridin-6-yl}-2-(piperidin-4-yl)isoquinolin-1-one] | 100 to 1000 | < 100 | < 100 | < 100 | < 100
Cc1cn2cc(-c3ccc4c(=O)n(C5CCNCC5)ccc4c3)cc(C#N)c2n1 [Compound 560, 2-methyl-6-[1-oxo-2-(piperidin-4-yl)isoquinolin-6-yl]imidazo[1,2-a]pyridine-8-carbonitrile] | 100 to 1000 | 100 to 1000 | 100 to 1000 | 100 to 1000 | 100 to 1000
Cc1cc(-c2cc(O)c3c(=O)n(C4CCNC5(CC5)C4)ncc3c2)cc2cn(C)nc12 (centres unmarked) [Compound 561] | 100 to 1000 | 100 to 1000 | 1000 to 10000 | 100 to 1000 | 1000 to 10000
Cc1cn2nc(-c3cc4ncn(C5CCNCC5)c(=O)c4cc3F)cc(C)c2n1 [Compound 585, 7-{2,8-dimethylimidazo[1,2-b]pyridazin-6-yl}-6-fluoro-3-(piperidin-4-yl)quinazolin-4-one] | 1000 to 10000 | 1000 to 10000 | 1000 to 10000 | 1000 to 10000 | 1000 to 10000
Cc1cn2cc(-c3cc4ncn(C5CCNCC5)c(=O)c4cc3F)cc(F)c2n1 [Compound 586, 6-fluoro-7-{8-fluoro-2-methylimidazo[1,2-a]pyridin-6-yl}-3-(piperidin-4-yl)quinazolin-4-one] | 1000 to 10000 | 100 to 1000 | 100 to 1000 | 100 to 1000 | 100 to 1000
Cc1cn2cc(-c3cc(O)c4c(=O)n(C5CCNCC5)cnc4c3)cc(F)c2n1 [Compound 587, 7-{8-fluoro-2-methylimidazo[1,2-a]pyridin-6-yl}-5-hydroxy-3-(piperidin-4-yl)quinazolin-4-one] | 100 to 1000 | 100 to 1000 | < 100 | < 100 | < 100

Now from value to compound, other results behind:

IC50 (Target C) [nM] | IC50 (HTT) [nM] | IC50 (MYB mRNA; [1]) [nM] | IC50 (MYB mRNA; [2]) [nM] | SMILES | AC50 (MYB mRNA; RT-qPCR) [nM]
1000 to 10000 | 1000 to 10000 | 100 to 1000 | 1000 to 10000 | Cc1cn2cc(-c3cc(F)c4c(=O)n(C5CCNCC5)cnc4c3)cc(C#N)c2n1 [Compound 588] | 100 to 1000
> 10000 | 1000 to 10000 | 1000 to 10000 | 1000 to 10000 | Cc1cn2nc(-c3cc(F)c4c(=O)n(C5CCNC5)cnc4c3)cc(C)c2n1 (centres unmarked) [Compound 589, 7-{2,8-dimethylimidazo[1,2-b]pyridazin-6-yl}-5-fluoro-3-(pyrrolidin-3-yl)quinazolin-4-one] | 1000 to 10000
< 100 | < 100 | < 100 | < 100 | Cc1cn2nc(-c3cc(F)c4c(=O)n([C@@H]5CCN(C)C6(CC6)C5)ncc4c3)cc(C)c2n1 [Compound 637] | < 100
< 100 | < 100 | < 100 | 100 to 1000 | Cc1cn2nc(-c3cc(F)c4c(=O)n([C@H]5CCN(C)C6(CC6)C5)ncc4c3)cc(C)c2n1 [Compound 638] | < 100
1000 to 10000 | 1000 to 10000 | 100 to 1000 | 100 to 1000 | Cc1cn2nc(-c3cc4ccn([C@@H]5CCNC5)c(=O)c4cc3O)cc(C)c2n1 [Compound 640, 6-(2,8-dimethylimidazo[1,2-b]pyridazin-6-yl)-7-hydroxy-2-[(3R)-pyrrolidin-3-yl]isoquinolin-1-one] | 100 to 1000

— patent publication US20250332173A1, “COMPOUNDS AND METHODS FOR MODULATING NUCLEIC ACID SPLICING” (REMIX THERAPEUTICS INC., priority 2021, published 2025)
